Measured values: patent US20190282703A1, “ECTONUCLEOTIDE PYROPHOSPHATASE-PHOSPHODIESTERASE (ENPP) CONJUGATES AND USES THEREOF” (Mavupharma, Inc., priority 2018, published 2019)

Legend:
human ENPP-1 enzyme [1] = target: T1, human ENPP-1 enzyme (Homo sapiens, UniProt P22413); assay: ENPP1 Enzyme Assay with TMP-pNP Substrate (absorbance at 405 nm); format: biochemical; conditions: for inhibition at 10 µM: read-out: TMP-pNP: % inhibition at 10 uM, 10 uM compound, 200 μM TMP-pNP substrate
T1 construct: purchased R&D Systems
T1 sequence (P22413 1-925): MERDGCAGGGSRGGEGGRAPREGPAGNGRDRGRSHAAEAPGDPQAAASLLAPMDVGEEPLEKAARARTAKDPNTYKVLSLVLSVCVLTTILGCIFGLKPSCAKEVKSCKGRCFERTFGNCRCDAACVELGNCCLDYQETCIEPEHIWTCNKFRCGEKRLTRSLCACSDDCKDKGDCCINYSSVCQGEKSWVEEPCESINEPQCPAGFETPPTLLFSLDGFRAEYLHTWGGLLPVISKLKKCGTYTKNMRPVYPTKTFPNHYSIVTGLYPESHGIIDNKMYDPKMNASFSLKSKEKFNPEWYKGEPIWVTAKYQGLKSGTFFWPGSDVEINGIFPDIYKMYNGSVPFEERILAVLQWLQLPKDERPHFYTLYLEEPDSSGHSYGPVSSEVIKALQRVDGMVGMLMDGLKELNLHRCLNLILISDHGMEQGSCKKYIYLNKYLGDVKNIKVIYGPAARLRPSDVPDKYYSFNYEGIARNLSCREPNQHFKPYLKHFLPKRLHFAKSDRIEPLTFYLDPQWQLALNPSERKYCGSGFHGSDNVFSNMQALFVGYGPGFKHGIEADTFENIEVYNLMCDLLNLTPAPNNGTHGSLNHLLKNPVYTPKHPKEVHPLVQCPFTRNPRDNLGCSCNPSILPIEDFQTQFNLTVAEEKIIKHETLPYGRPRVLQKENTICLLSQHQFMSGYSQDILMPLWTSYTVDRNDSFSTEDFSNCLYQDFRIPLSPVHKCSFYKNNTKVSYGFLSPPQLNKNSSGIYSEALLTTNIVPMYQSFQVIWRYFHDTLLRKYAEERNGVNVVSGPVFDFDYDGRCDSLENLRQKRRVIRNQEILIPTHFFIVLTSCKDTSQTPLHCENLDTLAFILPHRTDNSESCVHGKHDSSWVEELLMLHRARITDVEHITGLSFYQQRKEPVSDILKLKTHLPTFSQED
Experimental: ENPP1 Enzyme Assay with TMP-pNP Substrate:
ENPP-1 hydrolyzes thymidine 5′monophosphate p-nitrophenyl ester (TMP-pNP) to nucleotide-5′-monophosphate and p-nitrophenol, which is a chromogenic product. The amount of p-nitrophenol product formed is measured using its absorbance at 405 nm, which is directly proportional to enzyme activity. Different concentrations of inhibitors (synthetic molecules #1-7; see Table 1) were pre-incubated with 15 ng/well of human ENPP-1 enzyme (R&D Systems) for 15 minutes at 37° C. The reaction was initiated by adding 200 μM TMP-pNP and incubating for 10 minutes at 37° C. The final assay reaction mixture contained a buffer of 50 mM Tris pH 8.0, 250 mM NaCl, 0.5 mM CaCl2, 1 μM ZnCl2 and 1% DMSO. The amount of product formed was measured directly in a Tecan® spectrophotometer. Maximal activity control samples (containing enzyme, substrate, and buffer in the absence of ENPP1 inhibitors: MAX) and background control samples (containing enzyme, substrate, and buffer plus a fully inhibitory concentration (3 μM) of the reference ENPP1 Inhibitor, MV-0000002: MIN) are simultaneously evaluated in order to calculate the percent inhibition at each compound concentration as follows:
(§1) % inhibition=(([MAX−MIN]−[COMPOUND−MIN])/[MAX−MIN])*100
The IC50 values for percent inhibition versus compound concentration were determined by fitting the inhibition curves (percent inhibition versus inhibitor concentration) using a four-parameter variable slope model in GraphPad Prism® software. Ki values are derived from the IC50 values using the Cheng-Prusoff equation:
Ki=IC50/(1+[TMP-pNP]/Km),

human ENPP-1 enzyme [2] = target: T1, human ENPP-1 enzyme; assay: ENPP1 Enzyme Assay with cGAMP Substrate (AMP-Glo); format: biochemical; conditions: for inhibition at 1 µM: 1 uM compound; for inhibition at 1 µM / inhibition at 10 µM: 20 μM 2′3′-cGAMP substrate; for inhibition at 10 µM: 10 uM compound
Description: ENPP1 Enzyme Assay with cGAMP Substrate:
Ectonucleotide pyrophosphatase/phosphodiesterase 1 (ENPP-1) is a transmembrane glycoprotein that hydrolyzes nucleotides and nucleotide derivatives with the formation of nucleoside-5′-monophosphates. ENPP-1 hydrolyzes 2′3′-cGAMP (cGAMP), breaking it down into 5′-AMP and 5′-GMP. The 5′-AMP formed from the reaction is detected using the AMP-Glo® Kit (Promega). The assay kit contains two reagents. The first reagent terminates the enzymatic reaction, removes ATP (using adenylyl cyclase), and converts 5′-AMP produced into ADP (using polyphosphate: AMP phosphotransferase). The second reagent converts ADP to ATP (using adenylate kinase) and generates light from ATP using the luciferin/luciferase reaction. The amount of light measured is proportional to the amount of 5′-AMP produced by ENPP1.
Different concentrations of exemplary ENPP1 inhibitors (synthetic molecules #1-7; see Table 1) were pre-incubated with 5 ng/well of human ENPP-1 enzyme (R&D Systems) for 15 minutes at 37° C. The reaction was initiated by adding 20 μM 2′3′-cGAMP and incubating for 30 minutes at 37° C. The final assay reaction mixture contained a buffer of 50 mM Tris pH 8.0, 250 mM NaCl, 0.5 mM CaCl2, 1 μM ZnCl2 and 1% DMSO. At the end of the incubation, the reaction was stopped by adding 12 μl of AMP-Glo reagent-1 and mixing the reaction uniformly for 5 minutes, followed by incubation at room temperature for one hour. Then 25 μl of AMP Glo reagent-2 was added to the reaction, mixed uniformly with a pipette, and incubated at room temperature for one hour to convert the ADP formed from reagent-1 to ATP and light. The generated light was measured in a Perkin Elmer Victor® instrument. Maximal activity control samples (containing enzyme, substrate, and buffer in the absence of ENPP1 inhibitors: MAX) and background control samples (containing enzyme, substrate, and buffer plus a fully inhibitory concentration (3 μM) of the reference ENPP1 Inhibitor, MV-0000002: MIN) were simultaneously evaluated in order to calculate the percent inhibition at each compound concentration as follows:
as §1
The IC50 values for percent inhibition versus compound concentration were determined by fitting the inhibition curves using a four-parameter variable slope model in GraphPad Prism® software. Ki values are derived from the IC50 values using the Cheng-Prusoff equation: […]

For `COc1cc2ncc(C(N)=O)c(N3CCC(CCNS(N)(=O)=O)CC3)c2cc1OC` [Ex 2, 6,7-dimethoxy-4-(4-(2-(sulfamoylamino)ethyl)piperidin-1-yl)quinoline-3-carboxamide], the inhibition at 10 µM (human ENPP-1 enzyme [1]) was ≥ 75% and the inhibition at 1 µM (human ENPP-1 enzyme [2]) was ≥ 75%.

With `Cn1ncc2c(N3CCC(CCNS(N)(=O)=O)CC3)ncnc21` [Ex 3, N-(2-(1-(1-methyl-1H-pyrazolo[3,4-d]pyrimidin-4-yl)piperidin-4-yl)ethyl)sulfonic amide] the Ki (human ENPP-1 enzyme [1]) was > 1 µM, the Ki (human ENPP-1 enzyme [2]) was > 1 µM and the inhibition at 10 µM (human ENPP-1 enzyme [2]) was ≥ 75%.

In the case of `COc1cc2ncnc(NCCc3cccc(NS(N)(=O)=O)c3)c2cc1OC` [Ex 7, N-(3-(2-((6,7-dimethoxyquinazolin-4-yl)amino)ethyl)phenyl)sulfonic amide], the Ki (human ENPP-1 enzyme [1]) is reported as > 1 µM, the Ki (human ENPP-1 enzyme [2]) is reported as 0.1 to 1 µM and the inhibition at 10 µM (human ENPP-1 enzyme [2]) is reported as ≥ 75%.

In the case of `COc1cc2ncnc(N3CCc4c(cccc4S(N)(=O)=O)C3)c2cc1OC` [Ex 6, 2-(6,7-dimethoxyquinazolin-4-yl)-1,2,3,4-tetrahydroisoquinoline-5-sulfonamide], the Ki (human ENPP-1 enzyme [1]) is reported as > 1 µM, the Ki (human ENPP-1 enzyme [2]) is reported as 0.1 to 1 µM and the inhibition at 1 µM (human ENPP-1 enzyme [2]) is reported as ≥ 75%.

`COc1cc2ncnc(N3CCC4(CC3)CN(S(N)(=O)=O)C4)c2cc1OC` [Ex 5, 7-(6,7-dimethoxyquinazolin-4-yl)-2,7-diazaspiro[3.5]nonane-2-sulfonamide] was tested, and the Ki (human ENPP-1 enzyme [1]) was 0.1 to 1 µM, the inhibition at 10 µM (human ENPP-1 enzyme [1]) was ≥ 75% and the Ki (human ENPP-1 enzyme [2]) was ≤ 0.1 µM. The inhibition at 10 µM (human ENPP-1 enzyme [2]) was ≥ 75%.
